Reference: PubChem BioAssay AID1259407 (Chemical Carcinogenesis Research Information System (CCRIS), 2018)
Calls of active or inactive are those of the source. How the calls were made is not given here.

Test system: CCRIS mutagenicity, Ames/micronucleus/aberration tests
Assay: CCRIS mutagenicity studies
[1] = Test System: AMES SALMONELLA TYPHIMURIUM, Strain/Indicator: TA98, Metabolic Activation: HAMSTER, LIVER, S-9, AROCLOR 1254 (10%), Method: PREINCUBATION
[2] = Test System: AMES SALMONELLA TYPHIMURIUM, Strain/Indicator: TA98, Metabolic Activation: NONE, Method: PREINCUBATION
[3] = Test System: AMES SALMONELLA TYPHIMURIUM, Strain/Indicator: TA98, Metabolic Activation: RAT, LIVER, S-9, AROCLOR 1254 (10%), Method: PREINCUBATION
[4] = Test System: AMES SALMONELLA TYPHIMURIUM, Strain/Indicator: TA100, Metabolic Activation: HAMSTER, LIVER, S-9, AROCLOR 1254 (10%), Method: PREINCUBATION
[5] = Test System: AMES SALMONELLA TYPHIMURIUM, Strain/Indicator: TA100, Metabolic Activation: NONE, Method: PREINCUBATION
[6] = Test System: AMES SALMONELLA TYPHIMURIUM, Strain/Indicator: TA100, Metabolic Activation: RAT, LIVER, S-9, AROCLOR 1254 (10%), Method: PREINCUBATION
[7] = Test System: AMES SALMONELLA TYPHIMURIUM, Strain/Indicator: TA1535, Metabolic Activation: HAMSTER, LIVER, S-9, AROCLOR 1254 (10%), Method: PREINCUBATION
[8] = Test System: AMES SALMONELLA TYPHIMURIUM, Strain/Indicator: TA1535, Metabolic Activation: NONE, Method: PREINCUBATION
[9] = Test System: AMES SALMONELLA TYPHIMURIUM, Strain/Indicator: TA1535, Metabolic Activation: RAT, LIVER, S-9, AROCLOR 1254 (10%), Method: PREINCUBATION
[10] = Test System: AMES SALMONELLA TYPHIMURIUM, Strain/Indicator: TA1537, Metabolic Activation: HAMSTER, LIVER, S-9, AROCLOR 1254 (10%), Method: PREINCUBATION
[11] = Test System: AMES SALMONELLA TYPHIMURIUM, Strain/Indicator: TA1537, Metabolic Activation: NONE, Method: PREINCUBATION
[12] = Test System: AMES SALMONELLA TYPHIMURIUM, Strain/Indicator: TA1537, Metabolic Activation: RAT, LIVER, S-9, AROCLOR 1254 (10%), Method: PREINCUBATION
[13] = Test System: AMES SALMONELLA TYPHIMURIUM, Strain/Indicator: TA98, Metabolic Activation: NONE, Method: STANDARD PLATE
[14] = Test System: AMES SALMONELLA TYPHIMURIUM, Strain/Indicator: TA98, Metabolic Activation: RAT, LIVER, S-9, AROCLOR 1254, Method: STANDARD PLATE
[15] = Test System: AMES SALMONELLA TYPHIMURIUM, Strain/Indicator: TA100, Metabolic Activation: NONE, Method: STANDARD PLATE
[16] = Test System: AMES SALMONELLA TYPHIMURIUM, Strain/Indicator: TA100, Metabolic Activation: RAT, LIVER, S-9, AROCLOR 1254, Method: STANDARD PLATE

Compound: CC(=O)c1c(=O)cc(C)oc1=O
- mutagenic call (End Point: IN VIVO MICRONUCLEUS, Test System: BONE MARROW POLYCHROMATIC ERYTHROCYTES, Species: MOUSE, Strain/Sex: DDY/MALE, Route: IP): active; positive
- mutagenic call (Test System: AMES SALMONELLA TYPHIMURIUM, Strain/Indicator: TA97A, Metabolic Activation: NONE, Method: PREINCUBATION): inactive; negative
- mutagenic call (Test System: AMES SALMONELLA TYPHIMURIUM, Strain/Indicator: TA97A, Metabolic Activation: RAT, LIVER, S-9, AROCLOR 1254, Method: PREINCUBATION): inactive; negative
- mutagenic call [1]: inactive; negative
- mutagenic call [2]: inactive; negative
- mutagenic call [3]: inactive; negative
- mutagenic call [4]: inactive; negative
- mutagenic call [5]: inactive; negative
- mutagenic call [6]: inactive; negative
- mutagenic call (Test System: AMES SALMONELLA TYPHIMURIUM, Strain/Indicator: TA102, Metabolic Activation: NONE, Method: PREINCUBATION): inactive; negative
- mutagenic call (Test System: AMES SALMONELLA TYPHIMURIUM, Strain/Indicator: TA102, Metabolic Activation: RAT, LIVER, S-9, AROCLOR 1254, Method: PREINCUBATION): inactive; negative
- mutagenic call [7]: inactive; negative
- mutagenic call [8]: inactive; negative
- mutagenic call [9]: inactive; negative
- mutagenic call [10]: inactive; negative
- mutagenic call [11]: inactive; negative
- mutagenic call [12]: inactive; negative

Compound: CS(=O)(=O)Nc1ccc(Nc2c3ccc(N=[N+]=[N-])cc3nc3ccc(N=[N+]=[N-])cc23)cc1
- mutagenic call (Test System: AMES SALMONELLA TYPHIMURIUM, Strain/Indicator: TA1537, Metabolic Activation: NONE, Method: STANDARD PLATE): inactive; negative

Compound: CCCCOCC(=O)O
- mutagenic call (Test System: AMES SALMONELLA TYPHIMURIUM, Strain/Indicator: TA97A, Metabolic Activation: NONE, Method: STANDARD PLATE): inactive; negative
- mutagenic call (Test System: AMES SALMONELLA TYPHIMURIUM, Strain/Indicator: TA97A, Metabolic Activation: RAT, LIVER, S-9, AROCLOR 1254, Method: STANDARD PLATE): inactive; negative
- mutagenic call [13]: inactive; negative
- mutagenic call [14]: inactive; negative
- mutagenic call [15]: inactive; negative
- mutagenic call [16]: inactive; negative
- mutagenic call (Test System: AMES SALMONELLA TYPHIMURIUM, Strain/Indicator: TA102, Metabolic Activation: NONE, Method: STANDARD PLATE): inactive; negative
- mutagenic call (Test System: AMES SALMONELLA TYPHIMURIUM, Strain/Indicator: TA102, Metabolic Activation: RAT, LIVER, S-9, AROCLOR 1254, Method: STANDARD PLATE): inactive; negative

Compound: CC(=O)OCC(=O)NCCCOc1cccc(CN2CCCCC2)c1
- mutagenic call (Test System: AMES SALMONELLA TYPHIMURIUM, Strain/Indicator: TA98, Metabolic Activation: NONE): inactive; negative
- mutagenic call (Test System: AMES SALMONELLA TYPHIMURIUM, Strain/Indicator: TA98, Metabolic Activation: RAT, LIVER, S-9, PHENOBARBITAL AND 5,6-BENZOFLAVONE): inactive; negative
- mutagenic call (Test System: AMES SALMONELLA TYPHIMURIUM, Strain/Indicator: TA100, Metabolic Activation: NONE): inactive; negative
- mutagenic call (Test System: AMES SALMONELLA TYPHIMURIUM, Strain/Indicator: TA100, Metabolic Activation: RAT, LIVER, S-9, PHENOBARBITAL AND 5,6-BENZOFLAVONE): inactive; negative
- mutagenic call (Test System: AMES SALMONELLA TYPHIMURIUM, Strain/Indicator: TA1535, Metabolic Activation: NONE): inactive; negative
- mutagenic call (Test System: AMES SALMONELLA TYPHIMURIUM, Strain/Indicator: TA1535, Metabolic Activation: RAT, LIVER, S-9, PHENOBARBITAL AND 5,6-BENZOFLAVONE): inactive; negative
- mutagenic call (Test System: AMES SALMONELLA TYPHIMURIUM, Strain/Indicator: TA1537, Metabolic Activation: NONE): inactive; negative
- mutagenic call (Test System: AMES SALMONELLA TYPHIMURIUM, Strain/Indicator: TA1537, Metabolic Activation: RAT, LIVER, S-9, PHENOBARBITAL AND 5,6-BENZOFLAVONE): inactive; negative
- mutagenic call (Test System: AMES SALMONELLA TYPHIMURIUM, Strain/Indicator: TA1538, Metabolic Activation: NONE): inactive; negative
- mutagenic call (Test System: AMES SALMONELLA TYPHIMURIUM, Strain/Indicator: TA1538, Metabolic Activation: RAT, LIVER, S-9, PHENOBARBITAL AND 5,6-BENZOFLAVONE): inactive; negative
- mutagenic call (Test System: E. COLI, Strain/Indicator: WP2 UVRA, Metabolic Activation: NONE): inactive; negative
- mutagenic call (Test System: E. COLI, Strain/Indicator: WP2 UVRA, Metabolic Activation: RAT, LIVER, S-9, PHENOBARBITAL AND 5,6-BENZOFLAVONE): inactive; negative

Compound: Nc1ccc(/C=C/c2ccc(N)c(S(=O)(=O)O)c2)c(S(=O)(=O)O)c1
- mutagenic call [1]: inactive; negative
- mutagenic call [2]: inactive; negative
- mutagenic call [3]: inactive; negative
- mutagenic call [4]: inactive; negative
- mutagenic call [5]: inactive; negative
- mutagenic call [6]: inactive; negative
- mutagenic call [7]: inactive; negative
- mutagenic call [8]: inactive; negative
- mutagenic call [9]: inactive; negative
- mutagenic call [10]: inactive; negative
- mutagenic call [11]: inactive; negative
- mutagenic call [12]: inactive; negative

Compound: NC(=O)N/N=C(/CCN1CCCCC1)c1ccc([N+](=O)[O-])o1
- mutagenic call (Test System: E. COLI, Strain/Indicator: WP2, Metabolic Activation: NONE, Method: SPOT): active; positive
- mutagenic call (Test System: E. COLI, Strain/Indicator: WP2 UVRA, Metabolic Activation: NONE, Method: SPOT): active; positive

Compound: CC(C)(O)CCc1ccc(O)c2c(=O)c3c(O)c4c(cc3oc12)O[C@H]1OC=C[C@@H]41
- mutagenic call [13]: active; positive
- mutagenic call [14]: active; positive
- mutagenic call [15]: active; positive
- mutagenic call [16]: active; positive
